From publication PMC5218480 (PLoS ONE, 2017)

Test system: MV-4-11 cells
Experiment: Gene expression microarray analysis (Affymetrix PrimeView) and GSEA
Format: cell-based, human
Set-up: RFU PODN (11730768_x_at) / Fold change /veh PODN (11730768_x_at) / RFU LINC00158 (11744669_a_at) / Fold change /veh LINC00158 (11744669_a_at) / RFU DUSP10 (11751237_a_at) / Fold change /veh DUSP10 (11751237_a_at) / RFU ID3 (11757404_x_at) / Fold change /veh ID3 (11757404_x_at) / RFU PLEKHG5 (11737974_s_at) / Fold change /veh PLEKHG5 (11737974_s_at) / RFU LRRC4B (11730491_at) / Fold change /veh LRRC4B (11730491_at) / RFU GIMAP4 (11747438_a_at) / Fold change /veh GIMAP4 (11747438_a_at) / RFU KRT8 (11758183_x_at) / Fold change /veh KRT8 (11758183_x_at) / RFU CNN1 (11734310_a_at) / Fold change /veh CNN1 (11734310_a_at) / RFU VPS37D (11726825_at) / Fold change /veh VPS37D (11726825_at) / RFU C10orf10 (11716522_x_at) / Fold change /veh C10orf10 (11716522_x_at) / RFU KIR2DL2 /// KIR2DL4 /// KIR2DL5A /// KIR2DL5B /// KIR2DS1 /// KIR2DS2 /// KIR2DS3 /// KIR2DS4 /// KIR3DL3 /// KIR3DL3 /// KIR3DS1 (11738374_at) / Fold change /veh KIR2DL2 /// KIR2DL4 /// KIR2DL5A /// KIR2DL5B /// KIR2DS1 /// KIR2DS2 /// KIR2DS3 /// KIR2DS4 /// KIR3DL3 /// KIR3DL3 /// KIR3DS1 (11738374_at) / RFU C1QL1 (11718748_at) / Fold change /veh C1QL1 (11718748_at) / RFU TMPRSS4 (11747572_a_at) / Fold change /veh TMPRSS4 (11747572_a_at) / RFU HAMP (11756126_x_at) / Fold change /veh HAMP (11756126_x_at) / RFU RNFT2 (11725882_a_at) / Fold change /veh RNFT2 (11725882_a_at) / RFU NR4A2 (11747474_a_at) / Fold change /veh NR4A2 (11747474_a_at) / RFU ABCC12 (11746883_a_at) / Fold change /veh ABCC12 (11746883_a_at) / RFU TMEM136 (11760407_x_at) / Fold change /veh TMEM136 (11760407_x_at) / RFU CLDN22 /// WWC2 (11732394_at) / Fold change /veh CLDN22 /// WWC2 (11732394_at) / RFU HLA-DPB1 (11760878_x_at) / Fold change /veh HLA-DPB1 (11760878_x_at) / RFU SPINT1 (11716480_a_at) / Fold change /veh SPINT1 (11716480_a_at) / RFU GAP43 (11754022_s_at) / Fold change /veh GAP43 (11754022_s_at) / RFU A4GNT (11735810_at) / Fold change /veh A4GNT (11735810_at) / RFU PRB3 (11715151_x_at) / Fold change /veh PRB3 (11715151_x_at) / RFU TUBB4B (11761932_at) / Fold change /veh TUBB4B (11761932_at) / RFU CAPN14 (11732068_a_at) / Fold change /veh CAPN14 (11732068_a_at) / RFU TMCC2 (11721928_a_at) / Fold change /veh TMCC2 (11721928_a_at) / RFU IRGQ (11745062_a_at) / Fold change /veh IRGQ (11745062_a_at) / RFU FAM174B (11720279_a_at) / Fold change /veh FAM174B (11720279_a_at) / RFU TMPRSS4 (11748680_a_at) / Fold change /veh TMPRSS4 (11748680_a_at) / RFU FAM212B (11763350_a_at) / Fold change /veh FAM212B (11763350_a_at) / RFU PLEKHG5 (11743358_a_at) / Fold change /veh PLEKHG5 (11743358_a_at) / RFU ZSCAN30 (11745921_a_at) / Fold change /veh ZSCAN30 (11745921_a_at) / RFU CMKLR1 (11741424_a_at) / Fold change /veh CMKLR1 (11741424_a_at) / RFU LOC101060620 /// MAPK8IP1 (11723275_at) / Fold change /veh LOC101060620 /// MAPK8IP1 (11723275_at) / RFU SPTSSB (11747773_x_at) / Fold change /veh SPTSSB (11747773_x_at) / RFU PRSS12 (11739890_at) / Fold change /veh PRSS12 (11739890_at) / RFU BIN1 (11741810_x_at) / Fold change /veh BIN1 (11741810_x_at) / RFU WNT11 (11732464_a_at) / Fold change /veh WNT11 (11732464_a_at) / RFU C10orf10 (11716521_a_at) / Fold change /veh C10orf10 (11716521_a_at) / RFU C5orf56 (11738089_at) / Fold change /veh C5orf56 (11738089_at) / RFU CYB561 (11721691_x_at) / Fold change /veh CYB561 (11721691_x_at) / RFU ANKRD19P (11752326_a_at) / Fold change /veh ANKRD19P (11752326_a_at) / RFU OR2T12 /// OR2T33 /// OR2T8 (11738714_s_at) / Fold change /veh OR2T12 /// OR2T33 /// OR2T8 (11738714_s_at) / RFU VCAN (11748164_a_at) / Fold change /veh VCAN (11748164_a_at) / RFU JSRP1 (11732532_at) / Fold change /veh JSRP1 (11732532_at) / RFU KRTAP10-11 (11738290_x_at) / Fold change /veh KRTAP10-11 (11738290_x_at) / RFU MYO3A (11730013_a_at) / Fold change /veh MYO3A (11730013_a_at) / RFU EBF3 (11725865_a_at) / Fold change /veh EBF3 (11725865_a_at) / RFU CAMK2N1 (11719241_x_at) / Fold change /veh CAMK2N1 (11719241_x_at) / RFU C5orf56 (11738088_a_at) / Fold change /veh C5orf56 (11738088_a_at) / RFU OLFML3 (11715873_a_at) / Fold change /veh OLFML3 (11715873_a_at) / RFU LOC100653217 /// NTM (11731650_a_at) / Fold change /veh LOC100653217 /// NTM (11731650_a_at) / RFU MAPK11 (11762145_a_at) / Fold change /veh MAPK11 (11762145_a_at) / RFU FIZ1 (11724087_x_at) / Fold change /veh FIZ1 (11724087_x_at) / RFU OASL (11726364_x_at) / Fold change /veh OASL (11726364_x_at) / RFU SOX15 (11748057_x_at) / Fold change /veh SOX15 (11748057_x_at) / RFU CD79A (11719716_a_at) / Fold change /veh CD79A (11719716_a_at) / RFU HIST1H1D (11736915_at) / Fold change /veh HIST1H1D (11736915_at) / RFU CASKIN2 (11723855_a_at) / Fold change /veh CASKIN2 (11723855_a_at) / RFU LOC730098 (11760151_x_at) / Fold change /veh LOC730098 (11760151_x_at) / RFU OR4N2 (11742367_at) / Fold change /veh OR4N2 (11742367_at) / RFU PRRT2 (11749266_a_at) / Fold change /veh PRRT2 (11749266_a_at) / RFU SNX32 (11753110_a_at) / Fold change /veh SNX32 (11753110_a_at) / RFU CDHR5 (11726645_a_at) / Fold change /veh CDHR5 (11726645_a_at) / RFU RCAN1 (11760418_a_at) / Fold change /veh RCAN1 (11760418_a_at) / RFU FAM167A (11723789_a_at) / Fold change /veh FAM167A (11723789_a_at) / RFU FAM26E (11764081_at) / Fold change /veh FAM26E (11764081_at) / RFU ISYNA1 (11749810_s_at) / Fold change /veh ISYNA1 (11749810_s_at) / RFU ACY1 (11761880_at) / Fold change /veh ACY1 (11761880_at) / RFU 11764098_at / Fold change /veh 11764098_at / RFU SAMD14 (11745864_x_at) / Fold change /veh SAMD14 (11745864_x_at) / RFU NPB (11741838_a_at) / Fold change /veh NPB (11741838_a_at) / RFU TMPRSS6 (11731388_a_at) / Fold change /veh TMPRSS6 (11731388_a_at) / RFU KRTAP10-2 (11738614_at) / Fold change /veh KRTAP10-2 (11738614_at) / RFU ARHGAP8 /// PRR5-ARHGAP8 (11727945_x_at) / Fold change /veh ARHGAP8 /// PRR5-ARHGAP8 (11727945_x_at) / RFU KRTAP5-7 /// NADSYN1 (11734609_at) / Fold change /veh KRTAP5-7 /// NADSYN1 (11734609_at) / RFU RASL12 (11751679_a_at) / Fold change /veh RASL12 (11751679_a_at) / RFU CDKN2B (11736163_a_at) / Fold change /veh CDKN2B (11736163_a_at) / RFU PRF1 (11729649_at) / Fold change /veh PRF1 (11729649_at) / RFU, ZNF638 /// ZNF638-IT1 / Fold change vs veh, ZNF638 /// ZNF638-IT1 / RFU, PANK3 / Fold change vs veh, PANK3 / RFU, SH3YL1 / Fold change vs veh, SH3YL1 / RFU, ZEB2 / Fold change vs veh, ZEB2 / RFU, NRIP1 / Fold change vs veh, NRIP1 / RFU, PTTG1IP / Fold change vs veh, PTTG1IP / RFU, CAPN2 / Fold change vs veh, CAPN2 / RFU, MED14 / Fold change vs veh, MED14 / RFU, SNORA58 / Fold change vs veh, SNORA58 / RFU, C1orf63 / Fold change vs veh, C1orf63 / RFU, LRRFIP1 / Fold change vs veh, LRRFIP1 / RFU, NDUFAF7 / Fold change vs veh, NDUFAF7 / RFU, SLC12A2 / Fold change vs veh, SLC12A2 / RFU, IBTK / Fold change vs veh, IBTK / RFU, ESF1 / Fold change vs veh, ESF1 / Fold change vs veh, TMEM50B / RFU, TAOK1 / Fold change vs veh, TAOK1 / RFU, ACBD3 / Fold change vs veh, ACBD3 / RFU, TMA16 / Fold change vs veh, TMA16 / RFU, RWDD3 / Fold change vs veh, RWDD3 / RFU, BCAT1 / Fold change vs veh, BCAT1 / RFU, EDEM3 / Fold change vs veh, EDEM3 / RFU, TMEM33 / Fold change vs veh, TMEM33 / RFU, WDR75 / Fold change vs veh, WDR75 / RFU, AHCTF1 / Fold change vs veh, AHCTF1 / RFU, TFRC / Fold change vs veh, TFRC / RFU, ZDHHC17 / Fold change vs veh, ZDHHC17 / RFU, NOM1 / Fold change vs veh, NOM1 / RFU, ARL8B / Fold change vs veh, ARL8B / RFU, ZBTB11 / Fold change vs veh, ZBTB11 / RFU, TAMM41 / Fold change vs veh, TAMM41 / RFU, KIAA1704 /// LOC100996395 / Fold change vs veh, KIAA1704 /// LOC100996395 / RFU, ING1 / Fold change vs veh, ING1 / RFU, TRMT61B / Fold change vs veh, TRMT61B / RFU, FUBP3 / Fold change vs veh, FUBP3 / RFU, TP53 / Fold change vs veh, TP53 / RFU, TNKS2 / Fold change vs veh, TNKS2 / RFU, ZFP14 / Fold change vs veh, ZFP14 / RFU, ACTR2 / Fold change vs veh, ACTR2 / RFU, PPP3R1 / Fold change vs veh, PPP3R1 / RFU, PIK3R1 / Fold change vs veh, PIK3R1 / RFU, HNRNPA1 / Fold change vs veh, HNRNPA1 / RFU, RNF170 / Fold change vs veh, RNF170 / RFU, ZNF28 / Fold change vs veh, ZNF28 / RFU, RNGTT / Fold change vs veh, RNGTT / RFU, OGT / Fold change vs veh, OGT / RFU, BRD1 / Fold change vs veh, BRD1 / RFU, MARS / Fold change vs veh, MARS / RFU, ZNF655 / Fold change vs veh, ZNF655 / RFU, FAHD1 / Fold change vs veh, FAHD1 / RFU, BDP1 / Fold change vs veh, BDP1 / RFU, LRRCC1 / Fold change vs veh, LRRCC1 / RFU, ARID1A / Fold change vs veh, ARID1A / RFU, ZNF146 / Fold change vs veh, ZNF146 / RFU, ZNF330 / Fold change vs veh, ZNF330 / RFU, GPN3 / Fold change vs veh, GPN3 / RFU, C9orf123 / Fold change vs veh, C9orf123 / RFU, N4BP2L2 / Fold change vs veh, N4BP2L2 / RFU, ARFIP1 / Fold change vs veh, ARFIP1 / RFU, FAM179B / Fold change vs veh, FAM179B / RFU, BCL10 / Fold change vs veh, BCL10 / RFU, UHRF1BP1L / Fold change vs veh, UHRF1BP1L / RFU, BET1 / Fold change vs veh, BET1 / RFU, CNOT2 / Fold change vs veh, CNOT2 / RFU, ZNF268 / Fold change vs veh, ZNF268 / Fold change vs veh, ZNF507 / RFU, DGCR2 / Fold change vs veh, DGCR2 / RFU, WDSUB1 / Fold change vs veh, WDSUB1 / Fold change vs veh, HSP90B1 /// MIR3652 / RFU, ADSS / Fold change vs veh, ADSS / RFU, GK / Fold change vs veh, GK / RFU, ZNF148 / Fold change vs veh, ZNF148 / RFU, TAF9 / Fold change vs veh, TAF9 / RFU, SLC1A5 / Fold change vs veh, SLC1A5 / RFU, SLMO2 / Fold change vs veh, SLMO2 / RFU, ABCC4 / Fold change vs veh, ABCC4 / RFU, LOC101060439 /// RAP1B / Fold change vs veh, LOC101060439 /// RAP1B / RFU, RFX7 / Fold change vs veh, RFX7 / RFU, GTPBP10 / Fold change vs veh, GTPBP10 / RFU, CNEP1R1 / Fold change vs veh, CNEP1R1 / RFU, BIVM-ERCC5 /// ERCC5 / Fold change vs veh, BIVM-ERCC5 /// ERCC5 / RFU, ILF3 / Fold change vs veh, ILF3 / RFU 11762660_at / Fold change /veh 11762660_at / RFU VCAN (11757783_s_at) / Fold change /veh VCAN (11757783_s_at) / RFU DDX43 (11728927_at) / Fold change /veh DDX43 (11728927_at) / RFU KRT8 (11758188_x_at) / Fold change /veh KRT8 (11758188_x_at) / RFU NKD1 (11759106_at) / Fold change /veh NKD1 (11759106_at) / RFU SRD5A1 (11742802_a_at) / Fold change /veh SRD5A1 (11742802_a_at) / RFU TPSAB1 /// TPSB2 (11721975_s_at) / Fold change /veh TPSAB1 /// TPSB2 (11721975_s_at) / RFU GSTM3 (11746129_a_at) / Fold change /veh GSTM3 (11746129_a_at) / RFU IL23R (11737362_x_at) / Fold change /veh IL23R (11737362_x_at) / RFU TMEM51 (11727254_a_at) / Fold change /veh TMEM51 (11727254_a_at) / RFU PIWIL2 (11732686_x_at) / Fold change /veh PIWIL2 (11732686_x_at) / RFU ORM1 (11744905_x_at) / Fold change /veh ORM1 (11744905_x_at) / RFU CCDC152 (11743942_at) / Fold change /veh CCDC152 (11743942_at) / RFU ECM1 (11717891_a_at) / Fold change /veh ECM1 (11717891_a_at) / RFU IL23R (11748794_a_at) / Fold change /veh IL23R (11748794_a_at) / RFU TNFAIP8L3 (11732012_x_at) / Fold change /veh TNFAIP8L3 (11732012_x_at) / RFU MBOAT4 (11741988_at) / Fold change /veh MBOAT4 (11741988_at) / RFU 11764193_at / Fold change /veh 11764193_at / RFU TMEM53 (11763286_at) / Fold change /veh TMEM53 (11763286_at) / RFU MAGEB2 (11727129_at) / Fold change /veh MAGEB2 (11727129_at) / RFU TMEM200A (11744735_a_at) / Fold change /veh TMEM200A (11744735_a_at) / RFU CCDC152 (11751479_a_at) / Fold change /veh CCDC152 (11751479_a_at) / RFU FAM211A (11726209_a_at) / Fold change /veh FAM211A (11726209_a_at) / RFU RGS16 (11746705_a_at) / Fold change /veh RGS16 (11746705_a_at) / RFU VCAN (11755009_s_at) / Fold change /veh VCAN (11755009_s_at) / RFU RHOB (11743442_s_at) / Fold change /veh RHOB (11743442_s_at) / RFU RGS16 (11720943_a_at) / Fold change /veh RGS16 (11720943_a_at) / RFU RGS16 (11720944_at) / Fold change /veh RGS16 (11720944_at) / RFU, VPS4B / Fold change vs veh, VPS4B / RFU, CREB1 / Fold change vs veh, CREB1 / RFU, DNAJC13 / Fold change vs veh, DNAJC13 / RFU, GNAQ / Fold change vs veh, GNAQ / RFU, CDK5R1 / Fold change vs veh, CDK5R1 / RFU, ZRANB3 / Fold change vs veh, ZRANB3 / RFU, CUL4A / Fold change vs veh, CUL4A / RFU, CCNY / Fold change vs veh, CCNY / RFU, UFL1 / Fold change vs veh, UFL1 / RFU, COG3 / Fold change vs veh, COG3 / RFU, DIAPH2 / Fold change vs veh, DIAPH2 / RFU, SKA2 / Fold change vs veh, SKA2 / RFU, AFF3 / Fold change vs veh, AFF3 / RFU, LMF1 / Fold change vs veh, LMF1 / RFU, IPO11 / Fold change vs veh, IPO11 / RFU, DFFB / Fold change vs veh, DFFB / RFU, FOXP1 / Fold change vs veh, FOXP1 / RFU, CARD8 / Fold change vs veh, CARD8 / RFU, STRN3 / Fold change vs veh, STRN3 / RFU, ADK / Fold change vs veh, ADK / RFU, RASSF2 / Fold change vs veh, RASSF2 / RFU, WIPF1 / Fold change vs veh, WIPF1 / RFU, LARP1B / Fold change vs veh, LARP1B / RFU, RASA1 / Fold change vs veh, RASA1 / RFU, RB1 / Fold change vs veh, RB1 / RFU, PPFIA1 / Fold change vs veh, PPFIA1 / RFU, MAT2A / Fold change vs veh, MAT2A / RFU, CCT5 / Fold change vs veh, CCT5 / RFU, WDR92 / Fold change vs veh, WDR92 / RFU, CUX1 / Fold change vs veh, CUX1 / RFU, TTC7A / Fold change vs veh, TTC7A / RFU, TMEM135 / Fold change vs veh, TMEM135 / RFU, DEPTOR / Fold change vs veh, DEPTOR / RFU, CPM / Fold change vs veh, CPM / RFU, DNAJB6 / Fold change vs veh, DNAJB6 / RFU, CACNA2D3 / Fold change vs veh, CACNA2D3 / RFU, DTX4 / Fold change vs veh, DTX4 / RFU, TFCP2 / Fold change vs veh, TFCP2 / RFU, GMCL1 /// GMCL1P1 / Fold change vs veh, GMCL1 /// GMCL1P1 / RFU, AEBP2 / Fold change vs veh, AEBP2 / RFU, SNHG1 /// SNORD22 /// SNORD25 /// SNORD26 /// SNORD27 /// SNORD28 /// SNORD29 /// SNORD31 / Fold change vs veh, SNHG1 /// SNORD22 /// SNORD25 /// SNORD26 /// SNORD27 /// SNORD28 /// SNORD29 /// SNORD31 / Fold change (Aza/veh), C12orf56 (ProbeSet 11735607_a_at) / Fold change (ACY-1035/veh), C12orf56 (ProbeSet 11735607_a_at) / Fold change (Aza/veh), FGFR1OP (ProbeSet 11751329_s_at) / Fold change (ACY-1035/veh), FGFR1OP (ProbeSet 11751329_s_at) / Fold change (Aza/veh), VPS36 (ProbeSet 11739960_a_at) / Fold change (ACY-1035/veh), VPS36 (ProbeSet 11739960_a_at) / RFU SYPL1 (11715823_x_at) / Fold change /veh SYPL1 (11715823_x_at) / RFU IGFBP7 (11715501_s_at) / Fold change /veh IGFBP7 (11715501_s_at) / RFU REEP3 (11722064_at) / Fold change /veh REEP3 (11722064_at) / RFU IGLL1 (11728026_x_at) / Fold change /veh IGLL1 (11728026_x_at): dose or concentration left out as unconfirmed
Conditions: MV-4-11 cells, 48 hours

## Nc1ncn([C@@H]2O[C@H](CO)[C@@H](O)[C@H]2O)c(=O)n1 [azacitidine]
  RFU VCAN (11755009_s_at): 15.18 RFU
